Measured values published in patent US6500936B2, “Pluraflavins and derivatives thereof, process for their preparation and use thereof” (priority 2000, dated 2002).
Several values for one entry are separate records, joined by “and”; a condition that tells them apart may be missing. Equal entries are not always repeated. Where two headings read alike, the source gives them in different places.

Experiments:
Lung tumor cell line = experiment: MTT antiproliferation assay, lung tumor cells; assay type: cell-based
Text: (§1) MTT, a water soluble tetrazolium salt, is converted to an insoluble purple formazan when dissolved by cleavage of the tetrazolium ring by dehydrogenase enzymes in active mitochondria. […] This method was used to quantitate proliferation in order to determine activity of potential chemotherapeutic compounds.
(§2) All cells were maintained in RPMI 1640 (Life Technologies, Gaithersburg, Mdi) containing 10% heat-inactivated Fetal Bovine Serum, penicillin /streptomycin and supplemented with L-glutamine.
(§3) Cells were plated in 96-well tissue culture plates at the following densities:
(§4) Cells were allowed to adhere overnight at 37° C., 5% CO2.
(§5) The cells were washed with fresh media and the compounds added to the cells in a final volume of 100 μl. The cells plus compound were allowed to incubate at 37° C., 5% CO2 for approximately 72 hours.
(§6) At the desired time point, 25 μl of MTT (10 mg/ml in HBSS) were added to each well. Plates were incubated at 37° C. for 2-4 hours. MTT and media were removed and 200 μl DMSO were added per well. Readings were taken at 570 nm.

Breast tumor cell line = experiment: MTT antiproliferation assay, breast tumor cells; assay type: cell-based
Text: as §1, §2, §3, §4, §5, §6

Prostate tumor cell line = experiment: MTT antiproliferation assay, prostate tumor cells; assay type: cell-based
Text: as §1, §2, §3, §4, §5, §6

Colon tumor cell line = experiment: MTT antiproliferation assay, colon tumor cells; assay type: cell-based
Text: as §1, §2, §3, §4, §5, §6

leukemia cells = experiment: Soft agar assay against leukemia cells; assay type: cell-based
[1] = tested on: rat hepatoma cells ATCC CRL-1548; experiment: Cytostatic activity on rat hepatoma cells (Cell Titer 96 Aqueous); assay type: cell-based; details: read-out: IC50 (cytostatic effect)
Experimental: (a) To determine the cytostatic activity, rat hepatoma cells were used which were obtained from the strain collection American Type Culture Collection under the number ATCC CRL-1548, Jo No.223 and 228 The strain was kept in the “MEM (EAGLE) with Glutamax” medium [GIBCO BRL No.4109-028] with 10% fetal calf serum [GIBCO BRL No. 10270-106] and 10 μl of penicillin-streptomycin [GIBCO BRL No. 15140-114]/ml. 96-well microtiterplates [Greiner, No. 15140-114] were used. Each well was initially charged with 140 μl of culturing nutrient solution and in each case inoculated with 215,000 cells. The plates were then incubated at 37° C. and 5% CO2 for 20-24 hours. A dilution series of pluraflavins with concentrations of 100, 50, 25, 12.5, 6.25, 3.125, 1.5625, 0.7813, 0.3906, 0.195, 0.094, 0.047 and 0 μM, which had been prepared beforehand, was then pipetted in the corresponding order. After a further incubation time of 22 hours at 37° C. in an atmosphere of 5% CO2, the liquid medium was then aspirated. The cells that remained were stained with 100 μl of RPMI 1640 [GIBCO BRL No. 32404-014]/well and 20 μl of Cell Titer 96 Aqueous [PROMEGA No. G5430]/well. Light absorption at 590 nm was measured directly after addition and after 2 hours of incubation, as above. The cytostatic effect was calculated from the change in light absorption.

[2] = Chemical stability by medium / pH
[3] = Solubility (appearance description)

SMILES | IC50 (Lung tumor cell line; Lung cells, MTT, approximately 72 hours, read-out: IC50) | IC50 (Breast tumor cell line; Breast cells, MTT, approximately 72 hours, read-out: IC50) | IC50 (Prostate tumor cell line; Prostate cells, MTT, approximately 72 hours, read-out: IC50) | IC50 (Colon tumor cell line; Colon cells, MTT, approximately 72 hours, read-out: IC50) | IC50 (leukemia cells; soft agar assay, leukemia cells, read-out: IC50) | IC50 (Lung tumor cell line; 72 h) | IC50 (Breast tumor cell line; 72 h) | IC50 (Prostate tumor cell line; 72 h) | IC50 ([1]; Rattus norvegicus, 22 h) | IC50 (Colon tumor cell line; 72 h) | IC50 (leukemia cells) | stability in the alkaline range [2] | stability in neutral and mildly acidic medium [2] | stability in the strongly acidic range [2] | IC50 ([1]; rat hepatoma cells, 22 hours incubation) | solubility in polar organic solvents [3] | solubility in water [3]
CN1CC[C@H](c2c(O)cc(O)c3c(=O)cc(-c4ccccc4Cl)oc23)[C@H](O)C1 [flavopiridol, reference compound] | 90 nM | 90 nM | 80 nM | 30 nM | 500 nM and 600 nM | – | – | – | – | – | – | – | – | – | – | – | –
CC1OC(OC2C(C)OC(c3ccc4c(c3O)C(=O)c3c(cc(COC5CC(C)(N)C(O)C(C)O5)c5c(=O)cc(C6(C)OC6C)oc35)C4=O)CC2N(C)C)CC(O)C1O (stereo not drawn) [pluraflavin A] | – | – | – | – | – | 3 nM | < 23 nM | 10 nM | < 50 nM | 0.35 nM | 60 nM | unstable | stable | unstable | – | – | –
CC1OC(OC2C(C)OC(c3ccc4c(c3O)C(=O)c3c(cc(COC5CC(C)(N)C(O)C(C)O5)c5c(=O)cc(C(C)(O)C(C)O)oc35)C4=O)CC2N(C)C)CC(O)C1O (stereo not drawn) [pluraflavin B] | – | – | – | – | – | – | – | – | – | – | – | unstable | stable | – | < 50 nM | soluble | only sparingly soluble
CC1OC(OC2C(C)OC(c3ccc4c(c3O)C(=O)c3c(cc(C(=O)O)c5c(=O)cc(C(C)(O)C(C)O)oc35)C4=O)CC2N(C)C)CC(O)C1O (stereo not drawn) [pluraflavin E] | – | – | – | – | – | – | – | – | – | – | – | unstable | stable | unstable | – | soluble | only sparingly soluble
